Measured values published in patent US6737383B1, “Herbicidal oxadiazolidines” (priority 1999, dated 2004).

Tests used:
smallflower flatsedge = experiment: Test B flood test smallflower flatsedge; type: in vivo, Cyperus difformis
Outline: (§1)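 Flood test on plants grown to the 2-leaf stage; treated plants kept in greenhouse twelve to sixteen days, then visually rated against controls on a 0 (no effect) to 10 (complete control) scale.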

wheat = experiment: Test B pre/postemergence wheat; type: in vivo, Triticum aestivum; settings: for Wheat plant response rating: scale of 0 to 10 where 0 is no effect and 10 is complete control
Outline: (§2)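 Test chemicals in a non-phytotoxic solvent mixture with surfactant were sprayed preemergence onto planted seeds and postemergence onto plants 2 to 18 cm tall (1- to 4-leaf stage). After twelve to sixteen days in a greenhouse, injury was visually rated against untreated controls from 0 (no effect) to 10 (complete control).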

corn = experiment: Test B pre/postemergence corn; type: in vivo, Zea mays; settings: for Corn plant response rating: scale of 0 to 10 where 0 is no effect and 10 is complete control
Outline: as §2

purple nutsedge = experiment: Test B pre/postemergence purple nutsedge; type: in vivo, Cyperus rotundus; settings: for Nutsedge plant response rating: scale of 0 to 10 where 0 is no effect and 10 is complete control
Outline: as §2

bedstraw = experiment: Test B pre/postemergence bedstraw; type: in vivo, Galium aparine; settings: Postemergence
Outline: as §2

crabgrass = experiment: Test B pre/postemergence crabgrass; type: in vivo, Digitaria sanguinalis; settings: for Crabgrass plant response rating: scale of 0 to 10 where 0 is no effect and 10 is complete control
Outline: as §2

sugar beet = experiment: Test B pre/postemergence sugar beet; type: in vivo, Beta vulgaris; settings: for Sugarbeets plant response rating: scale of 0 to 10 where 0 is no effect and 10 is complete control
Outline: as §2

duck salad = experiment: Test B flood test duck salad; type: in vivo, Heteranthera limosa
Outline: as §1

blackgrass = experiment: Test B pre/postemergence blackgrass; type: in vivo, Alopecurus myosuroides
Outline: as §2

surinam grass = experiment: Test B pre/postemergence surinam grass; type: in vivo, Brachiaria decumbens
Outline: as §2

rice = experiment: Test B flood test rice; type: in vivo, Oryza sativa
Outline: as §1

soybean = experiment: Test B pre/postemergence soybean; type: in vivo, Glycine max; settings: for Soybean plant response rating: scale of 0 to 10 where 0 is no effect and 10 is complete control
Outline: as §2

pigweed = experiment: Test B pre/postemergence pigweed; type: in vivo, Amaranthus retroflexus; settings: for Redroot pigweed plant response rating: scale of 0 to 10 where 0 is no effect and 10 is complete control
Outline: as §2

wild oat = experiment: Test B pre/postemergence wild oat; type: in vivo, Avena fatua; settings: for Wild oats plant response rating: scale of 0 to 10 where 0 is no effect and 10 is complete control
Outline: as §2

velvetleaf = experiment: Test B pre/postemergence velvetleaf; type: in vivo, Abutilon theophrasti; settings: for Velvetleaf plant response rating: scale of 0 to 10 where 0 is no effect and 10 is complete control
Outline: as §2

rape = experiment: Test B pre/postemergence rape; type: in vivo, Brassica napus; settings: for Rape plant response rating: scale of 0 to 10 where 0 is no effect and 10 is complete control
Outline: as §2

[1] = Postemergence (flood test), Rate 125 g/ha, scale 0 to 10, 0 is no effect, 10 is complete control
[2] = Rate 62 g/ha, Postemergence (flood test species), scale of 0 to 10 where 0 is no effect and 10 is complete control
[3] = Postemergence, Rate 125 g/ha, scale 0 to 10, 0 is no effect, 10 is complete control
[4] = Preemergence, Rate 62 g/ha, scale 0 to 10 (0 no effect, 10 complete control)
[5] = Rate 500 g/ha, Postemergence, scale 0 to 10, 0 no effect, 10 complete control
[6] = Rate 500 g/ha, listed under Postemergence (flood test species), scale 0 to 10, 0 no effect, 10 complete control
[7] = Preemergence, Rate 500 g/ha, scale of 0 to 10 where 0 is no effect and 10 is complete control
[8] = Rate 62 g/ha, Postemergence, scale of 0 to 10 where 0 is no effect and 10 is complete control
[9] = Rate 250 g/ha, Postemergence, scale of 0 to 10 where 0 is no effect and 10 is complete control

CC(C)N(C(=O)n1oc(=O)n(C2CCC2)c1=O)c1ccc(Cl)cc1 [Compound 349]
Plant response rating, S. Flatsedge (smallflower flatsedge; [1]): 5
S. Flatsedge plant response rating (smallflower flatsedge; [2]): 0
Plant response rating, Wheat (wheat; [3]): 0
Plant response rating, Wheat (wheat; [4]): 0
Wheat plant response rating (0 to 10 scale) (wheat; Preemergence, Rate 125 g/ha): 0
Wheat plant response rating (wheat; Preemergence, Rate 250 g/ha): 0
Wheat plant response rating (wheat; Preemergence, Rate 500 g/ha): 0
Wheat plant response rating (wheat; Rate 62 g/ha, Postemergence): 0
Plant response rating, Wheat (wheat; [5]): 3
Plant response rating, Corn (corn; [3]): 0
Plant response rating, Corn (corn; [4]): 0
Corn plant response rating (0 to 10 scale) (corn; Preemergence, Rate 125 g/ha): 0
Corn plant response rating (corn; Preemergence, Rate 250 g/ha): 0
Corn plant response rating (corn; Preemergence, Rate 500 g/ha): 2
Corn plant response rating (corn; Rate 62 g/ha, Postemergence): 0
Plant response rating, Corn (corn; [5]): 0
Plant response rating, Nutsedge (purple nutsedge; [3]): 0
Plant response rating, Nutsedge (purple nutsedge; [4]): 0
Nutsedge plant response rating (0 to 10 scale) (purple nutsedge; Preemergence, Rate 125 g/ha): 0
Nutsedge plant response rating (purple nutsedge; Preemergence, Rate 250 g/ha): 0
Nutsedge plant response rating (purple nutsedge; Preemergence, Rate 500 g/ha): 0
Nutsedge plant response rating (purple nutsedge; Rate 62 g/ha, Postemergence): 0
Plant response rating, Nutsedge (purple nutsedge; [5]): 0
Plant response rating, Bedstraw (bedstraw; Rate 125 g/ha, scale 0 to 10, 0 is no effect, 10 is complete control): 3
Bedstraw plant response rating (bedstraw; Rate 62 g/ha, scale of 0 to 10 where 0 is no effect and 10 is complete control): 2
Plant response rating, Bedstraw (bedstraw; Rate 500 g/ha, scale 0 to 10, 0 no effect, 10 complete control): 3
Plant response rating, Crabgrass (crabgrass; [3]): 0
Plant response rating, Crabgrass (crabgrass; [4]): 3
Crabgrass plant response rating (0 to 10 scale) (crabgrass; Preemergence, Rate 125 g/ha): 6
Crabgrass plant response rating (crabgrass; Preemergence, Rate 250 g/ha): 8
Crabgrass plant response rating (crabgrass; Preemergence, Rate 500 g/ha): 9
Crabgrass plant response rating (crabgrass; Rate 62 g/ha, Postemergence): 0
Plant response rating, Crabgrass (crabgrass; [5]): 3
Plant response rating, Sugarbeets (sugar beet; [3]): 0
Plant response rating, Sugarbeets (sugar beet; [4]): 0
Sugarbeets plant response rating (0 to 10 scale) (sugar beet; Preemergence, Rate 125 g/ha): 2
Sugarbeets plant response rating (sugar beet; Preemergence, Rate 250 g/ha): 4
Sugarbeets plant response rating (sugar beet; Preemergence, Rate 500 g/ha): 4
Sugarbeets plant response rating (sugar beet; Rate 62 g/ha, Postemergence): 0
Plant response rating, Sugarbeets (sugar beet; [5]): 0
Plant response rating, Ducksalad (duck salad; [1]): 0
Ducksalad plant response rating (duck salad; [2]): 0
Plant response rating, Ducksalad (duck salad; [6]): 4
Plant response rating, Blackgrass (blackgrass; [3]): 4
Plant response rating, Blackgrass (blackgrass; [4]): 2
Blackgrass plant response rating (0 to 10 scale) (blackgrass; Preemergence, Rate 125 g/ha): 2
Blackgrass plant response rating (blackgrass; Preemergence, Rate 250 g/ha, scale of 0 to 10 where 0 is no effect and 10 is complete control): 4
Blackgrass plant response rating (blackgrass; [7]): 4
Blackgrass plant response rating (blackgrass; [8]): 1
Plant response rating, Blackgrass (blackgrass; [9]): 4
Plant response rating, Blackgrass (blackgrass; [5]): 6
Plant response rating, B. signalgrass (surinam grass; [3]): 0
B. signalgrass plant response rating (surinam grass; [7]): 4
B. signalgrass plant response rating (surinam grass; [8]): 0
Plant response rating, B. signalgrass (surinam grass; [9]): 0
Plant response rating, B. signalgrass (surinam grass; [5]): 0
Plant response rating, Rice (rice; [1]): 0
Rice plant response rating (rice; [2]): 0
Plant response rating, Rice (rice; [6]): 0
Plant response rating, Soybean (soybean; [3]): 2
Plant response rating, Soybean (soybean; [4]): 0
Soybean plant response rating (0 to 10 scale) (soybean; Preemergence, Rate 125 g/ha): 0
Soybean plant response rating (soybean; Preemergence, Rate 250 g/ha): 0
Soybean plant response rating (soybean; Preemergence, Rate 500 g/ha): 0
Soybean plant response rating (soybean; Rate 62 g/ha, Postemergence): 1
Plant response rating, Soybean (soybean; [5]): 2
Plant response rating, Redroot pigweed (pigweed; [3]): 2
Plant response rating, Redroot pigweed (pigweed; [4]): 0
Redroot pigweed plant response rating (0 to 10 scale) (pigweed; Preemergence, Rate 125 g/ha): 0
Redroot pigweed plant response rating (pigweed; Preemergence, Rate 250 g/ha): 2
Redroot pigweed plant response rating (pigweed; Preemergence, Rate 500 g/ha): 7
Redroot pigweed plant response rating (pigweed; Rate 62 g/ha, Postemergence): 0
Plant response rating, Redroot pigweed (pigweed; [5]): 4
Plant response rating, Wild oats (wild oat; [3]): 0
Plant response rating, Wild oats (wild oat; [4]): 0
Wild oats plant response rating (0 to 10 scale) (wild oat; Preemergence, Rate 125 g/ha): 0
Wild oats plant response rating (wild oat; Preemergence, Rate 250 g/ha): 3
Wild oats plant response rating (wild oat; Preemergence, Rate 500 g/ha): 9
Wild oats plant response rating (wild oat; Rate 62 g/ha, Postemergence): 0
Plant response rating, Wild oats (wild oat; [5]): 3
Plant response rating, Velvetleaf (velvetleaf; [3]): 0
Plant response rating, Velvetleaf (velvetleaf; [4]): 0
Velvetleaf plant response rating (0 to 10 scale) (velvetleaf; Preemergence, Rate 125 g/ha): 0
Velvetleaf plant response rating (velvetleaf; Preemergence, Rate 250 g/ha): 3
Velvetleaf plant response rating (velvetleaf; Preemergence, Rate 500 g/ha): 3
Velvetleaf plant response rating (velvetleaf; Rate 62 g/ha, Postemergence): 0
Plant response rating, Velvetleaf (velvetleaf; [5]): 0
Plant response rating, Rape (rape; [3]): 0
Plant response rating, Rape (rape; [4]): 0
Rape plant response rating (0 to 10 scale) (rape; Preemergence, Rate 125 g/ha): 0
Rape plant response rating (rape; Preemergence, Rate 250 g/ha): 0
Rape plant response rating (rape; Preemergence, Rate 500 g/ha): 4
Rape plant response rating (rape; Rate 62 g/ha, Postemergence): 0
Plant response rating, Rape (rape; [5]): 0
